Where a name gives a salt, the structure may show the parent alone.
Experiments:
[1] = Solid state storage stability (Peak Area % measured by HPLC); assay type: physicochemical; conditions: for Peak Area % 15 days / Peak Area % Initial / Peak Area % 6 weeks: solid state; for Peak Area % Initial: -20° C. freezer; for stability on storage: compared with the potassium salt
Text: The following table summarizes stability data obtained (Peak Area % measured by HPLC) for solid state ((1S,2S,4R)-4-{4-[(1S)-2,3-dihydro-1H-inden-1-ylamino]-7H-pyrrolo[2,3-d]pyrimidin-7-yl}-2-hydroxycyclopentyl)methyl sulfamate.

[2] = Solubility of Form 1 in water; assay type: physicochemical
Text: The resulting solution has a pH of about 2.33.

| Peak Area % 15 days ([1]; 5° C. refrigerator) [%] | Peak Area % 15 days ([1]; 40° C./75% RH) [%] | Peak Area % 15 days ([1]; 60° C./75% RH) [%] | Peak Area % Initial [1] [%] | stability on storage [1] | solubility ([2]; pH 2.33, thermodynamic from solid, in water) [µg/mL] | pH of the resulting solution ([2]; solution resulting from dissolution in water) | Peak Area % 6 weeks ([1]; 5° C. refrigerator) [%] | Peak Area % 6 weeks ([1]; 40° C./75% RH) [%] | Peak Area % 6 weeks ([1]; 60° C./75% RH) [%] | SMILES |
| --- | --- | --- | --- | --- | --- | --- | --- | --- | --- | --- |
| 96.4 | 94.5 | 93.2 | 96.0 | – | – | – | – | – | – | NS(=O)(=O)OC[C@@H]1C[C@@H](n2ccc3c(N[C@H]4CCc5ccccc54)ncnc32)C[C@@H]1O [free base (amorphous), ((1S,2S,4R)-4-{4-[(1S)-2,3-dihydro-1H-inden-1-ylamino]-7H-pyrrolo[2,3-d]pyrimidin-7-yl}-2-hydroxycyclopentyl)methyl sulfamate, reference compound] |
| 98.2 | 97.8 | 88.6 | 98.3 | increased stability on storage | – | – | – | – | – | NS(=O)(=O)OC[C@@H]1C[C@@H](n2ccc3c(N[C@H]4CCc5ccccc54)ncnc32)C[C@@H]1O [HCl Salt Form 2, ((1S,2S,4R)-4-{4-[(1S)-2,3-dihydro-1H-inden-1-ylamino]-7H-pyrrolo[2,3-d]pyrimidin-7-yl}-2-hydroxycyclopentyl)methyl sulfamate hydrochloride Form 2] |
| 97.6 | 88.7 | 38.3 | 96.9 | – | – | – | – | – | – | NS(=O)(=O)OC[C@@H]1C[C@@H](n2ccc3c(N[C@H]4CCc5ccccc54)ncnc32)C[C@@H]1O.[K] [potassium salt (amorphous), potassium salt of ((1S,2S,4R)-4-{4-[(1S)-2,3-dihydro-1H-inden-1-ylamino]-7H-pyrrolo[2,3-d]pyrimidin-7-yl}-2-hydroxycyclopentyl)methyl sulfamate, reference compound] |
| – | – | – | 99.2 | increased stability on storage | ~7800 | about 2.33 | 99.3 | 98.7 | 91.3 | NS(=O)(=O)OC[C@@H]1C[C@@H](n2ccc3c(N[C@H]4CCc5ccccc54)ncnc32)C[C@@H]1O [HCl Salt Form 1, ((1S,2S,4R)-4-{4-[(1S)-2,3-dihydro-1H-inden-1-ylamino]-7H-pyrrolo[2,3-d]pyrimidin-7-yl}-2-hydroxycyclopentyl)methyl sulfamate hydrochloride Form 1] |

Source: patent publication US10016427B2, “Hydrochloride salt of((1S,2S,4R)-4-{4-[(1S)-2,3-dihydro-1H-inden-1-ylamino]-7H-pyrrolo[2,3-D]pyrimidin-7-YL}-2-hydroxycyclopentyl) methyl sulfamate” (Millennium Pharmaceuticals, Inc., priority 2009, dated 2018)
